{"source": "patent EP0218400A1", "about": "“Assay methods for chemotherapeutic agents” (DAMON BIOTECH, INC., priority 1985, dated 1987)", "key": {"[1]": {"test_system": "human lung carcinoma A549 cells", "assay": "In vivo susceptibility of encapsulated A549 cells", "conditions": "i.v. days 2, 5, 9; for No. of tumor cells per 1 ml of capsules / percent Inhibition: Adriamycin 6, BCNU 20, CY 100 mg/kg", "description": "(§1) In the experiments that follow, the drugs and other agents tested were administered to the host animal by injection at the various times called for in the protocol being tested. At various periods after treatment, the mice were killed by cervical dislocation. The peritoneal cavity of each mouse was washed with PBS or medium and floating microcapsules were aspirated using a large bore plastic Pasteur pipette. Microcapsules were transferred to 15 ml tubes and washed 3 to 4 times with PBS to remove host peritoneal cells. The washed microcapsules were aspirated into 1 ml serological pipettes, allowed to sediment, and the volume of packed microcapsules was determined. Microcapsules were then transferred to a glas dounce homogenizer (7 ml volume) and disrupted with 3 strokes of an A-tolerance plumger. Cells suspensions were filtered through nylon mesh to remove the disrupted membranes. The suspensions containing tumor cells were centrifuged and the pellet was resuspended in 0.25 to 0.5 ml of complete medium. After mixing equal volumes of cell suspension and trypan blue, viable cell counts were determined using a hemocytometer.\n(§2) The number of tumor cells per 1 ml of packed microcapsules was determined as follows: a = ? where b = total number of tumor cells in the suspension, and c = total volume of microcapsules used for the preparation of this suspension.\n(§3) By comparing the number of tumor cells in 1 ml of microcapsules derived from non-treated and drug-treated mice, the percent inhibition of tumor cell growth was calculated: [formula] where ac = number of tumor cells from the non-treated control microcapsules, and ae = number of tumor cells from the drug treated microcapsules.\nThe sensitivity of human lung carcinoma A549 cells to the drugs was assessed 12 and 14 days after transplantation of encapsulated tumor cells. The treatments were applied i.v. 2, 5 and 9 days after microcapsule transplantation (Table 5)."}, "P388 Resistant Cells": {"test_system": "P388 Resistant Cells", "assay": "In vivo growth of encapsulated adriamycin-resistant P388 lymphoma cells in nude mice", "description": "as §1, §2, §3\nSince drug-resistance is one of the most important causes of failure in chemotherapy, it is crucial that a predictive assay be able to distinguish between effective and non-effective drugs for particular tumors. […] One day later the mice received by i.v. administration Adriamycin (6 mg/kg), Vinblastin (1 mg/kg) or Cyclophosphamide (100 mg/kg). Five days after administration some of the mice were sacrificed, the microcapsules were recovered and the numbers of tumor cells inside the capsules were determined. The remaining mice received a second administration and the microcapsules were recovered from the remaining mice 3 days afterwards. The results are shown in Table 7 and correlate well with the known characteristics of P388 cell line and its variant."}, "[2]": {"test_system": "MOLT-4 human lymphoma cells", "assay": "In vivo sensitivity of encapsulated MOLT-4 cells in nude mice, NCI schedule", "conditions": "Adriamycin 6 mg/kg, 15 days after transplantation", "description": "as §1, §2, §3\nIn the next experiment various drugs were administered in vivo according to schedules and doses typically used for screening antitumor effects of the drugs at the National Cancer Institute, Developmental Therapeutics program.\nMOLT-4 human lymphoma cells were encapsulated and transplanted into peritoneum of nude mice. Doses of various drugs were applied i.v. at 1, 5 and 9 days after tumor cell transplantation."}}, "data": [{"compound": "COc1cccc2c1C(=O)c1c(O)c3c(c(O)c1C2=O)C[C@@](O)(C(=O)CO)C[C@@H]3O[C@H]1C[C@H](N)[C@H](O)[C@H](C)O1", "note": "[Adriamycin]", "values": [{"measurement": "No. of tumor cells per 1 ml of capsules", "setting": "[1]; 12 days after transplantation", "value": "9.0 x 10^5"}, {"measurement": "percent Inhibition", "setting": "[1]; 12 days after transplantation", "value": 85, "unit": "%"}, {"measurement": "No. of tumor cells per 1 ml of capsules", "setting": "[1]; 14 days after transplantation", "value": "13.5 x 10^5"}, {"measurement": "percent Inhibition", "setting": "[1]; 14 days after transplantation", "value": 84, "unit": "%"}, {"measurement": "reduction of the numbers of tumor cells (in words)", "setting": "[1]", "value": "more efficient in this respect than CY"}, {"measurement": "No. cells/ml", "setting": "P388 Resistant Cells; 5 + 3 days after treatment (3 days after second administration), Adriamycin 6, Vinblastin 1, Cyclophosphamide 100 mg/kg i.v.", "value": "32 x 10^6"}, {"measurement": "No. cells/ml", "setting": "P388 Resistant Cells; 5 days after treatment, i.v. one day after inoculation, Adriamycin 6, Vinblastin 1, Cyclophosphamide 100 mg/kg", "value": "18 x 10^6"}, {"measurement": "inhibiting the growth of the drug-resistant variant (in words)", "setting": "P388 Resistant Cells; Adriamycin 6 mg/kg, Vinblastin 1 mg/kg i.v.", "value": "Neither Adriamycin nor Vinblastin in the doses administered was effective"}, {"measurement": "inhibition of tumor cell proliferation (in words)", "setting": "[2]; 5-FU 60 mg/kg i.v. days 1, 5, 9", "value": "dramatic inhibition of tumor cell proliferation"}, {"measurement": "inhibition at 6 mg/kg", "setting": "[2]; Mus musculus, MOLT-4, iv, 360 h, i.v. days 1, 5, 9, Cyclophosphamide 100 mg/kg, 5-Fu 60 mg/kg, nude mice", "value": 95, "unit": "%"}, {"measurement": "No of viable tumor cells per 1 ml of capsules", "setting": "[2]; i.v. days 1, 5, 9, Cyclophosphamide 100 mg/kg, 5-Fu 60 mg/kg, nude mice", "value": "2.7 x 10^6"}]}]}
